The text below walks through data of patent US9073880B2, “2-(2-phenylethenyl) 1,3-benzodiazepine derivatives useful for the treatment of cancer” (Yissum Research Development Company of the Hebrew …, priority 2010, dated 2015).

Common to all, as to type: cell-based
The test system of test [1] is human bladder carcinoma T24P cells. The experiment in a line: Cell proliferation, T24P (Example 4). The settings on record: compound in 2-hydroxypropyl-β-cyclodextrin. The protocol:
(§1) Human ovary cancer A2780 cells lines were seeded at a density of 5000 cells/well, human melanoma A375 cells were plated at a density of 2,500 cells/well, human colon carcinoma HCT15 cells were plated at a density of 3,000 cells/well, human prostate carcinoma PC3 cells were plated at a density of 1,500 cells/well, human breast carcinoma MCF7 cells were plated at a density of 5,000 cells/well, human breast carcinoma MDA MB 468 cells were plated at a density of 6,000 cells/well, human myeloma U266, RPMI8226 and CAG cells were plated at a density of 10,000 cells/well. All cells were plated in 96-well plates in 90 μl growth medium containing 10% FCS, 100 units/ml penicillin and 100 μg/ml streptomycin. Compound 3 was added a day later in […] of 1% DMSO in DDW to obtain final concentrations of 0, 0.1, 0.3, 1, 3, and 10 μM. The final concentration of DMSO (0.1% DMSO) was kept constant in all samples. Following exposure of the cells to compound 3 for 72 hours at 37° C., adhered cells were fixed in 0.5% gluteraldehyde in medium for 10 min, washed three times with DDW, once with 0.1M sodium borate buffer pH 8.5 and stained with 1% methylene blue dissolved in 0.1M borate buffer solution for 60 min. Excess dye was washed out and cell-bound dye was eluted with 200 μl/well of 0.1M HCl. The optical density values were read at 630 nm in ELISA plate reader. Non-adhered cells were exposed to WST-1 reagent for 5 hours following 72 hours treatment with the inhibitors, and optical density values were read at 630 nm in ELISA plate reader. The data was analyzed in Microsoft Excel, using the vehicle control as 100% proliferation. The assays were performed in triplicates. The values of IC50 were derived from the dose-dependent growth curves obtained.
(§2) Cell proliferation assay was performed as described in Example 2. […]

Test [2] concerns human NCI-H1975 cells. The experiment in a line: Cell proliferation, NCI-H1975 (Example 4). The settings on record: NCI-H1975, SCLC, compound in 2-hydroxypropyl-β-cyclodextrin. The protocol:
as §1, §2

The subject of test [3] is Human ovary cancer A2780 cells. The experiment in a line: Cell proliferation, A2780 (Example 4). The settings on record: compound in 2-hydroxypropyl-β-cyclodextrin. As to the method:
as §1, §2

The subject of test [4] is human leukemia K562 cells. The experiment in a line: Cell proliferation, K562 (Example 4). The settings on record: compound in 2-hydroxypropyl-β-cyclodextrin. The protocol: as §1
Cell proliferation assay was performed as described in Example 2. The following cell line were plated in 96-well plates in 90 μl growth medium containing 10% FCS, 100 units/ml penicillin and 100 μg/ml streptomycin: human ovary cancer A2780 cells (4500 cells/well), human melanoma A375 (1500 cells/well) and YUMAC (2500 cells/well) cells, human colon carcinoma HCT15 (3000 cells/well) and HCT116 (2000 cells/well) cells, human prostate carcinoma PC3 (3000 cells/well), PC3MM2 (3500 cells/well) and DU145 (300 cells/well) cells, human hepatocarcinoma HepG2 (3000 cells/well), human Ewing sarcoma SK-ES-1 (4,500 cells/well), human glioblastoma U138MG (2,000 cells/well), human breast cancer T47D (4000 cells/well) and MDA-MB-468 (6000 cells/well) cells, human small cell lung carcinoma NCI-H1975 (5000 cells/well) cells, human osteosarcoma Saos-2 (5000 cells/well) cells, human pancreatic cancer ASPC (2500 cells/well) cells, human bladder carcinoma T24P (1000 cells/well) cells, human gastric cancer NCI-N87 (5000 cells/well) cells, human lymphoma KARPAS (5,000 cells/well) cells, human leukemia K562 (5,000 cells/well) cells and human multiple myeloma MM1S (10,000 cells/well), U266 (10,000 cells/well) and CAG (5,000 cells/well). Compounds 2-5 and 7-8 were added a day later in 10 μl of 0.7% 2-hydroxypropyl-β-cyclodextrin to obtain final concentrations of 0, 0.1, 0.3, 1, 3 and 10 μM.
Compounds 2-5 and 7-8 of the present invention were tested for their inhibitory potential in cell proliferation assay. […]

For test [5], the system named is human gastric cancer NCI-N87 cells. The experiment in a line: Cell proliferation, NCI-N87 (Example 4). The settings on record: compound in 2-hydroxypropyl-β-cyclodextrin. The protocol:
as §1, §2

The test system of test [6] is human osteosarcoma Saos-2 cells. The experiment in a line: Cell proliferation, Saos-2 (Example 4). The settings on record: Saos-2, osteosarcoma, compound in 2-hydroxypropyl-β-cyclodextrin. The protocol:
as §1, §2

Test [7] has as its system human multiple myeloma MM1S cells. The experiment in a line: Cytotoxicity of combination with Velcade in MM1S cells (CellTiter Glo). The settings on record: for α/a+β/b (synergism if <1): combination with Velcade, three days; for combined effect with Velcade versus Bliss additive effect: compound 0.1 or 0.2 M (so in the source), 1 and 1.5 nM Velcade, FIGS. 8 and 9. The protocol:
Human multiple myeloma MM1S cells were plated at a density of 10,000 cells/well in 96-well plates in 90 μl growth medium containing 10% FCS, 100 units/ml penicillin and 100 μg/ml streptomycin. Velcade® (i.e. bortezomib or PS-341) was obtained from LC Laboratories. Compounds 3 and 5 were added a day later in 5 μl of 0.7% 2-hydroxypropyl-β-cyclodextrin in DDW to the multiple myeloma cell plates to obtain final concentrations of […]. Velcade® was added in 5 μl of 1% DMSO to obtain final concentrations of 0, 0.5, 1 and 1.5 nM. Three days later CellTiter Glo reagent (100 μl/well) was added to the medium (1:1), shaked, and following 10 min incubation transferred to 96-well white plates and read in a Luminometer. The data was analyzed in Microsoft Excel, using the vehicle control as 0% cytotoxicity. The assays were performed in triplicates. Cytotoxicity (%) was calculated as follows: [(absorbance of control cells—absorbance of drug-treated cells)/absorbance of control cells]×100. In FIGS. 8 and 9 the Bliss additivism model (Cardone et al. Science (1998), 282: 1318-1321) was used to calculate the combined effect using the following formula: Ebliss=EA+EB−EA×EB, where EA and EB are the fractional inhibitions obtained by drug A alone and drug B alone at specific concentrations. […] The synergic effect was calculated in an additional method in which the existence of α/a+β/b<1 was tested (a is the IC50 of drug A in the absence of drug B, α is the IC50 of drug A in the presence of drug B, b is the IC50 of drug B in the absence of drug A, β is the IC50 of drug B in the presence of drug A).
For orientation: Cellular ATP, detected with luciferase, serves as a proxy for viable cell number.

Test [8] relates to human breast cancer T47D cells. The experiment in a line: Cell proliferation, T47D (Example 4). The settings on record: compound in 2-hydroxypropyl-β-cyclodextrin. As to the method:
as §1, §2

SMILES strings stand for the structures.

A word on the IC50: it is the concentration needed to halve the response being measured. Read a low IC50 as inhibition by little substance. In the case of `O=c1c(O)cc2cnc(/C=C/c3ccc(O)c(O)c3Br)sc-2c1O` [Compound 5], the concentration for half-maximal inhibition (IC50) came out at 6.5 µM in test [1]; 800 nM in test [2]; 400 nM in test [3]; 500 nM in test [4]; 4 µM in test [5]; 2800 nM in test [6]. The concentration for half-maximal inhibition (IC50) in test [8] turned out to be 1800 nM. The “α/a+β/b (synergism if <1)” value in test [7] amounted to 0.6. The “combined effect with Velcade versus Bliss additive effect” value in test [7] was “strong synergistic effect”.

With `O=c1c(O)cc2cnc(/C=C/c3cc(O)c(O)c(Br)c3)sc-2c1O` [Compound 3], the concentration for half-maximal inhibition (IC50) came out at 6 µM in test [1]; 1000 nM in test [2]; 400 nM in test [3]; 500 nM in test [4]; 4.5 µM in test [5]; 3100 nM in test [6]. Also, in test [8], the IC50 was found to be 1500 nM. In addition, in test [7], the “α/a+β/b (synergism if <1)” value amounted to 0.7. Further, the “combined effect with Velcade versus Bliss additive effect” value in test [7] is listed as “strong synergistic effect”.
